Test results as given in ChEMBL document CHEMBL1629662, “Antimicrobial activity of prulifloxacin tested against a worldwide collection of gastroenteritis-producing pathogens, including those causing traveler's diarrhea” (2009).

Legend:
Escherichia coli = test: Antibacterial activity against Escherichia coli by broth microdilution methods in presence of sulfamethoxazolee
Salmonella enteritidis = test: Antibacterial activity against Salmonella enterica serovar Enteritidis by broth microdilution method in presence of sulfamethoxazolee
Vibrio parahaemolyticus = test: Antibacterial activity against Vibrio parahaemolyticus by broth microdilution methods in presence of sulfamethoxazole
Campylobacter coli = test: Antibacterial activity against Campylobacter coli by broth microdilution method in presence of sulfamethoxazole
[1] = Antibacterial activity against Salmonella enterica serovar Newport by broth microdilution method in presence of sulfamethoxazole
Aeromonas caviae = test: Antibacterial activity against Aeromonas caviae by broth microdilution methods in presence of sulfamethoxazole
Vibrio alginolyticus = test: Antibacterial activity against Vibrio alginolyticus by broth microdilution methods in presence of sulfamethoxazole
Vibrio vulnificus = test: Antibacterial activity against Vibrio vulnificus by broth microdilution method in presence of sulfamethoxazole
[2] = tested on: Yersinia pseudotuberculosis; test: Antibacterial activity against Yersinia pseudotuberculosis by broth microdilution methods in presence of sulfamethoxazole
Aeromonas sobria = test: Antibacterial activity against Aeromonas sobria by broth microdilution methods in presence of sulfamethoxazole
Salmonella typhi = test: Antibacterial activity against Salmonella enterica serovar Typhi by broth microdilution method in presence of sulfamethoxazolee
[3] = Antibacterial activity against Salmonella enterica serovar Heidelberg by broth microdilution method in presence of sulfamethoxazole
Yersinia enterocolitica = test: Antibacterial activity against Yersinia enterocolitica by broth microdilution methods in presence of sulfamethoxazole
Vibrio cholerae = test: microbe, parasite or virus in culture
Campylobacter jejuni = test: Antibacterial activity against Campylobacter jejuni by broth microdilution method in presence of sulfamethoxazole
Aeromonas hydrophila = test: Antibacterial activity against Aeromonas hydrophila by broth microdilution methods in presence of sulfamethoxazole
[4] = Antibacterial activity against Salmonella enterica serovar Virchow by broth microdilution method in presence of sulfamethoxazole
Shigella boydii = test: Antibacterial activity against Shigella boydii by broth microdilution methods in presence of sulfamethoxazole
Vibrio fluvialis = test: Antibacterial activity against Vibrio fluvialis by broth microdilution method in presence of sulfamethoxazole
Shigella sonnei = test: Antibacterial activity against Shigella sonnei by broth microdilution method in presence of sulfamethoxazole
Salmonella paratyphi = test: Antibacterial activity against Salmonella enterica serovar Paratyphi by broth microdilution method in presence of sulfamethoxazolee
Shigella flexneri = test: Antibacterial activity against Shigella flexneri by broth microdilution method in presence of sulfamethoxazole
Salmonella typhimurium = test: Antibacterial activity against Salmonella enterica serovar Typhimurium by broth microdilution method in presence of sulfamethoxazolee
Shigella dysenteriae = test: Antibacterial activity against Shigella dysenteriae by broth microdilution methods in presence of sulfamethoxazole
Vibrio sp. = test: Antibacterial activity against Vibrio sp. by broth microdilution method in presence of sulfamethoxazole
Aeromonas veronii = test: Antibacterial activity against Aeromonas veronii by broth microdilution methods in presence of sulfamethoxazole
Plesiomonas shigelloides = test: Antibacterial activity against Plesiomonas shigelloides by broth microdilution method in presence of sulfamethoxazole

## COc1cc(Cc2cnc(N)nc2N)cc(OC)c1OC [TRIMETHOPRIM]
Escherichia coli
  MIC50: ≤ 0.5 µg/mL
  MIC90: > 64 µg/mL
Salmonella enteritidis
  MIC50: ≤ 0.5 µg/mL
  MIC90: ≤ 0.5 µg/mL
Vibrio parahaemolyticus
  MIC50: ≤ 0.5 µg/mL
  MIC90: ≤ 0.5 µg/mL
Campylobacter coli
  MIC50: 2 µg/mL
  MIC90: 8 µg/mL
[1]
  MIC50: ≤ 0.5 µg/mL
  MIC90: ≤ 0.5 µg/mL
Aeromonas caviae
  MIC50: ≤ 0.5 µg/mL
  MIC90: 8 µg/mL
Vibrio alginolyticus
  MIC50: ≤ 0.5 µg/mL
  MIC90: ≤ 0.5 µg/mL
Vibrio vulnificus
  MIC50: ≤ 0.5 µg/mL
  MIC90: ≤ 0.5 µg/mL
[2]
  MIC50: ≤ 0.5 µg/mL
Aeromonas sobria
  MIC50: ≤ 0.5 µg/mL
  MIC90: 8 µg/mL
Salmonella typhi
  MIC50: ≤ 0.5 µg/mL
  MIC90: ≤ 0.5 µg/mL
[3]
  MIC50: ≤ 0.5 µg/mL
  MIC90: ≤ 0.5 µg/mL
Yersinia enterocolitica
  MIC50: ≤ 0.5 µg/mL
Vibrio cholerae
  MIC50: ≤ 0.5 µg/mL
  MIC90: ≤ 0.5 µg/mL
Campylobacter jejuni
  MIC50: 2 µg/mL
  MIC90: 8 µg/mL
Aeromonas hydrophila
  MIC50: ≤ 0.5 µg/mL
  MIC90: 8 µg/mL
[4]
  MIC50: ≤ 0.5 µg/mL
  MIC90: ≤ 0.5 µg/mL
Shigella boydii
  MIC50: > 64 µg/mL
  MIC90: > 64 µg/mL
Vibrio fluvialis
  MIC50: ≤ 0.5 µg/mL
  MIC90: ≤ 0.5 µg/mL
Shigella sonnei
  MIC50: > 64 µg/mL
  MIC90: > 64 µg/mL
Salmonella paratyphi
  MIC50: ≤ 0.5 µg/mL
  MIC90: ≤ 0.5 µg/mL
Shigella flexneri
  MIC50: > 64 µg/mL
  MIC90: > 64 µg/mL
Salmonella typhimurium
  MIC50: ≤ 0.5 µg/mL
  MIC90: ≤ 0.5 µg/mL
Shigella dysenteriae
  MIC50: > 64 µg/mL
  MIC90: > 64 µg/mL
Vibrio sp.
  MIC50: ≤ 0.5 µg/mL
  MIC90: ≤ 0.5 µg/mL
Aeromonas veronii
  MIC50: ≤ 0.5 µg/mL
  MIC90: 8 µg/mL
Plesiomonas shigelloides
  MIC: ≤ 0.5 µg/mL
  MIC50: ≤ 0.5 µg/mL
